Test systems include A549 NSCLC; EKVX NSCLC; SNB-19 CNS; CAKI-1 renal; SK-OV-3 ovarian; SNB-75 CNS; HCT-116 colon; MOLT-4 leukemia; HS 578T breast; ACHN renal.
Holding throughout (test): growth of human tumour cells (NCI), 48 h

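Method: 48-hour compound exposure of cells in 96-well plates, five concentrations, linear interpolation of endpoints. GI50: concentration for 50% inhibition of growth. TGI: total growth inhibition.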

We go through two compounds from PubChem BioAssay (NCI).

Turning to `COc1cc(C2C3=C(COC3=O)N(CCO)c3cc4c(cc32)CCC4)cc(OC)c1OC` (stereo not given), the GI50 with A549 NSCLC is 130 nM; in the assay with EKVX NSCLC, 1120 nM; in the assay with SNB-19 CNS, 94.6 nM; with CAKI-1 renal, 484 nM; with SK-OV-3 ovarian it was 97.8 nM; with SNB-75 CNS, 123 nM. Also, the GI50 with HCT-116 colon was 91.9 nM; with MOLT-4 leukemia, 147 nM; in the assay on HS 578T breast it was 104 nM; in the assay with ACHN renal, 229 nM. For the same compound, the TGI is greater than 32500 nM in the assay with A549 NSCLC; greater than 32500 nM in the assay with EKVX NSCLC; 6380 nM in the assay on SNB-19 CNS; greater than 32500 nM in the assay on CAKI-1 renal; 366 nM in the assay with SK-OV-3 ovarian; greater than 32500 nM with SNB-75 CNS. Also, the TGI in the assay with HCT-116 colon is 409 nM; in the assay with MOLT-4 leukemia it was greater than 32500 nM; in the assay with HS 578T breast, greater than 32500 nM; in the assay on ACHN renal, greater than 32500 nM.
With `COc1cc2c(cc1Nc1nc(Nc3ccsc3C(N)=O)c3cc[nH]c3n1)N(C(=O)CN(C)C)CCC2`, the GI50 is 636 nM in the assay on A549 NSCLC; 551 nM in the assay with EKVX NSCLC; 2580 nM with SNB-19 CNS; 3640 nM with CAKI-1 renal; 1180 nM in the assay on SK-OV-3 ovarian; 1490 nM with SNB-75 CNS. In addition, the GI50 with HCT-116 colon was 458 nM; with MOLT-4 leukemia, 1230 nM; with HS 578T breast, 1140 nM; with ACHN renal, 2670 nM. The TGI with A549 NSCLC was 3920 nM; with EKVX NSCLC, 6350 nM; in the assay with SNB-19 CNS it was greater than 25000 nM; in the assay with CAKI-1 renal, 10200 nM; with SK-OV-3 ovarian, 4890 nM; with SNB-75 CNS, 3920 nM. For the same compound, the TGI with HCT-116 colon was found to be 3790 nM; in the assay with MOLT-4 leukemia, 9600 nM; with HS 578T breast, 5420 nM; in the assay on ACHN renal, 6060 nM.
